In publication PMC12057336 (Antimicrobial Agents and Chemotherapy, 2025):
Where two headings read alike, the source gives them in different places.

Assay: Tissue distribution after i.g. or i.v. linezolid in control, CCl4-induced and 5/6 Nx rats
Type: in vivo, rat
Details: rat
Source text: These two groups were further divided into the following three subgroups (n = 4): control rats, CCl4-induced rats, and 5/6 Nx rats. […] The rats were euthanized immediately after blood sampling. The brain, heart, lungs, liver, kidneys, and small intestine were collected. The collected tissues were washed and homogenized in normal saline (three-fold volume of each sample weight) using a multi-sample tissue grinder (Tissuelyser-48L; Shanghai Jingxin Industrial Development Co. Ltd., Shanghai, China). After centrifugation of the homogenate samples at 12,000 × g for 10 min at 4°C, the supernatants were stored at −80°C.
The flow rate was 1.0 mL/min.
Then, 5 µL of the supernatant was analyzed.

[1] = brain, iv, 25 mg/kg, i.v. 25 mg/kg linezolid, 5/6 Nx rats, read-out: Tissue/plasma concentration ratio, Brain
[2] = brain, iv, 25 mg/kg, i.v. 25 mg/kg linezolid, CCl4-induced rats, read-out: Tissue/plasma concentration ratio, Brain
[3] = brain, iv, 25 mg/kg, i.v. 25 mg/kg linezolid, control rats, read-out: Tissue/plasma concentration ratio, Brain
[4] = brain, oral, 63 mg/kg, i.g. 63 mg/kg linezolid, 5/6 Nx rats, read-out: Tissue/plasma concentration ratio, Brain
[5] = brain, oral, 63 mg/kg, i.g. 63 mg/kg linezolid, CCl4-induced rats, read-out: Tissue/plasma concentration ratio, Brain
[6] = brain, oral, 63 mg/kg, i.g. 63 mg/kg linezolid, control rats, read-out: Tissue/plasma concentration ratio, Brain
[7] = heart, iv, 25 mg/kg, i.v. 25 mg/kg linezolid, 5/6 Nx rats, read-out: Tissue/plasma concentration ratio, Heart
[8] = heart, iv, 25 mg/kg, i.v. 25 mg/kg linezolid, CCl4-induced rats, read-out: Tissue/plasma concentration ratio, Heart
[9] = heart, iv, 25 mg/kg, i.v. 25 mg/kg linezolid, control rats, read-out: Tissue/plasma concentration ratio, Heart
[10] = heart, oral, 63 mg/kg, i.g. 63 mg/kg linezolid, CCl4-induced rats, read-out: Tissue/plasma concentration ratio, Heart
[11] = heart, oral, 63 mg/kg, i.g. 63 mg/kg linezolid, control rats, read-out: Tissue/plasma concentration ratio, Heart
[12] = heart, oral, 63 mg/kg, i.g. 63 mg/kg linezolid, 5/6 Nx rats, read-out: Tissue/plasma concentration ratio, Heart
[13] = kidney, iv, 25 mg/kg, i.v. 25 mg/kg linezolid, 5/6 Nx rats, read-out: Tissue/plasma concentration ratio, Kidney
[14] = kidney, iv, 25 mg/kg, i.v. 25 mg/kg linezolid, control rats, read-out: Tissue/plasma concentration ratio, Kidney
[15] = kidney, oral, 63 mg/kg, i.g. 63 mg/kg linezolid, CCl4-induced rats, read-out: Tissue/plasma concentration ratio, Kidney
[16] = kidney, oral, 63 mg/kg, i.g. 63 mg/kg linezolid, 5/6 Nx rats, read-out: Tissue/plasma concentration ratio, Kidney
[17] = kidney, oral, 63 mg/kg, i.g. 63 mg/kg linezolid, control rats, read-out: Tissue/plasma concentration ratio, Kidney

## CC(=O)NC[C@H]1CN(c2ccc(N3CCOCC3)c(F)c2)C(=O)O1 [Linezolid]
[1]
  Kp at 0.5 h: 0.12 ± 0.04
  Kp at 1 h: 0.15 ± 0.01
  Kp at 4 h: 0.13 ± 0.04
[2]
  Kp at 0.5 h: 0.16 ± 0.12
  Kp at 1 h: 0.12 ± 0.03
  Kp at 4 h: 0.08 ± 0.01
[3]
  Kp at 0.5 h: 0.11 ± 0.02
  Kp at 1 h: 0.12 ± 0.02
[4]
  Kp at 0.5 h: 0.17 ± 0.06
  Kp at 1 h: 0.16 ± 0.03
  Kp at 4 h: 0.18 ± 0.06
[5]
  Kp at 0.5 h: 0.1 ± 0.01
  Kp at 1 h: 0.09 ± 0.02
  Kp at 4 h: 0.07 ± 0.04
[6]
  Kp at 0.5 h: 0.15 ± 0.02
  Kp at 1 h: 0.03 ± 0.002
  Kp at 4 h: 0.06 ± 0.03
[7]
  Kp at 0.5 h: 0.85 ± 0.04
  Kp at 1 h: 0.91 ± 0.04
  Kp at 4 h: 0.75 ± 0.13
[8]
  Kp at 0.5 h: 0.63 ± 0.05
  Kp at 1 h: 0.67 ± 0.05
  Kp at 4 h: 0.67 ± 0.09
[9]
  Kp at 0.5 h: 0.5 ± 0.09
  Kp at 1 h: 0.4 ± 0.07
  Kp at 4 h: 0.13 ± 0.1
[10]
  Kp at 0.5 h: 0.64 ± 0.14
  Kp at 1 h: 0.54 ± 0.18
  Kp at 4 h: 0.61 ± 0.03
[11]
  Kp at 0.5 h: 0.68 ± 0.06
  Kp at 1 h: 0.24 ± 0.06
  Kp at 4 h: 0.47 ± 0.15
[12]
  Kp at 1 h: 0.88 ± 0.12
  Kp at 4 h: 0.96 ± 0.47
Kidney (homogenate) relative to plasma, iv, 25 mg/kg, i.v. 25 mg/kg linezolid, 5/6 Nx rats, read-out: Tissue/plasma concentration ratio, Kidney
  Kp at 4 h: 1 ± 0.23
[13]
  Kp at 0.5 h: 0.97 ± 0.12
  Kp at 1 h: 0.92 ± 0.18
kidney, iv, 25 mg/kg, i.v. 25 mg/kg linezolid, CCl4-induced rats, read-out: Tissue/plasma concentration ratio, Kidney
  Kp at 0.5 h: 1.28 ± 0.56
[14]
  Kp at 0.5 h: 0.64 ± 0.36
  Kp at 1 h: 0.62 ± 0.52
  Kp at 4 h: 0.84 ± 0.14
[15]
  Kp at 0.5 h: 0.85 ± 0.16
  Kp at 1 h: 1.18 ± 0.22
  Kp at 4 h: 1.11 ± 0.17
[16]
  Kp at 1 h: 0.94 ± 0.18
  Kp at 4 h: 0.97 ± 0.25
[17]
  Kp at 1 h: 0.42 ± 0.06
  Kp at 4 h: 0.75 ± 0.15
Liver (homogenate) relative to plasma, iv, 25 mg/kg, i.v. 25 mg/kg linezolid, 5/6 Nx rats, read-out: Tissue/plasma concentration ratio, Liver
  Kp at 0.5 h: 1.24 ± 0.21
Liver (homogenate) relative to plasma, iv, 25 mg/kg, i.v. 25 mg/kg linezolid, CCl4-induced rats, read-out: Tissue/plasma concentration ratio, Liver
  Kp at 0.5 h: 1.32 ± 0.36
Liver (homogenate) relative to plasma, iv, 25 mg/kg, i.v. 25 mg/kg linezolid, control rats, read-out: Tissue/plasma concentration ratio, Liver
  Kp at 0.5 h: 1.22 ± 0.46
